Residues, ends and D or L forms follow the SMILES beside them.
Experiments:
[1] = tested on: db/db mice; test: 6 weeks s.c. administration in db/db mice: HbA1c and body weight; format: in vivo; settings: versus vehicle
Experimental: The HbA1c determination is based on Turbidimetric INhibition ImmunoAssay (TINIA) in which HbA1c in the sample reacts with anti-HbA1c to form soluble antigen-antibody complexes. Additions of polyhaptens react with excess anti-HbA1c antibodies to form an insoluble antibody-polyhapten complex, which can be measured turbidimetrically. Liberated hemoglobin in the hemolyzed sample is converted to a derivative having a characteristic absorption spectrum, which is measured bichromatically during the preincubation phases. The final result is expressed as percent HbA1c of total hemoglobin (Cobas®Application note A1C-2).
db/db (BKS.Cg-m+/+ Lepr^db/J) male mice, 5-6 weeks old, were obtained from Charles River Laboratories, Germany, and acclimatized in their new environment with free access to normal chow and water. […] Throughout the study, body weights were recorded daily and used to administer the body weight-corrected doses of peptide. HbA1c levels were measured on blood samples before treatment, and then once weekly during the study. […]
Blood samples were analyzed for HbA1c using the Cobas c111 analyzer (Roche Diagnostics, Mannheim, Germany). Samples for HbA1c analysis were analyzed within 24 hours of sampling.
Throughout the study, body weights were recorded daily and used to administer the body weight-corrected doses of peptide. […]

[2] = tested on: diet induced obese C57BL/6J mice; test: 3 weeks s.c. treatment in diet induced obese C57BL/6J mice: body weight and OGTT; format: in vivo; settings: s.c. twice daily
Experimental: C57Bl/6J male mice, 6 weeks old, were acclimatized in their new environment with free access to a high fat diet and water. 36 weeks old, the animals were randomized into groups with similar average fasting (6 hours) blood glucose (assessed from blood samples taken from the tip of the tail). The mice were treated twice daily s.c. for three weeks with compound 6 or vehicle. Body weight was recorded daily. After peptide treatment an oral glucose tolerance test (OGTT) were performed after subjecting the animals to a 6 hour fast. Animals were dosed with peptide or vehicle in the morning. Approximately four hours later an initial blood sample (fasting blood glucose level) was taken. Thereafter an oral dose of glucose was given and the animals were returned to their home cages (t=0). BG was measured at t=15 min, t=30 min, t=60 min, t=90 min and t=120 min. All animals were sacrificed immediately following blood sampling by CO2 anesthesia followed by cervical dislocation.

[3] = tested on: high fat diet fed mice; test: 3 weeks s.c. treatment, lipids in 30 weeks high fat diet fed mice; format: in vivo; settings: 30 weeks high fat diet mice, 10 nmol/kg s.c. twice daily
Experimental: The assay is an enzymatic colorimetric method. In the presence of magnesium ions, dextran sulfate selectively forms water-soluble complexes with LDL, VLDLA and chylomicrons, which are resistant to PEG-modified enzymes. The HDL cholesterol is determined enzymatically by cholesterol esterase and cholesterol oxidase coupled with PEG to the amino groups. Cholesterol esters are broken down quantitatively to free cholesterol and fatty acids. HDL cholesterol is enzymatically oxidized to choles-4-en-3-one and H2O2, and the formed H2O2 is measured colorimetrically (Cobas®; Application note HDLC3).
The direct determination of LDL takes advantage of the selective micellary solubilization of LDL by a nonionic detergent and the interaction of a sugar compound and lipoproteins (VLDL and chylomicrons). The combination of a sugar compound with detergent enables the selective determination of LDL in plasma. The test principle is the same as that of cholesterol and HDL, but due to the sugar and detergent only LDL-cholesterol esters are broken down to free cholesterol and fatty acids. Free cholesterol is then oxidized and the formed H2O2 is measured colorimetrically (Application note LDL_C, Cobas®).
The effect was measured on LDL, HDL and triglycerides (CHO: Total Cholesterol; HDL: High Density Cholesterol; LDL: Low Density Cholesterol; TRIG: Triglycerides; HDULDL: Ratio between HDL and LDL).

[4] = target: GLP-1 receptor (Homo sapiens, UniProt P43220); test: Class B GPCR counterscreen, calcium flux agonist format; format: cell-based; settings: at 12.5 μM and 125 nM
From the text: (§1) The protocol design is as follows:

[5] = target: Glucagon receptor (Homo sapiens, UniProt P47871); settings: at 12.5 μM and 125 nM
Experimental: Unless specified otherwise, the sample compounds were diluted in 100% anhydrous DMSO including all dilutions. If the sample compound is provided in a different solvent all master stock dilutions are performed in the specified solvent. All control wells contained identical solvent final concentrations as the sample compound wells.
Reference agonists were handled as mentioned above serving as assay control. The reference agonists were handled as described above for Emax.

[6] = target: T1, CRF2 receptor (Homo sapiens, UniProt Q13324); test: Class B GPCR counterscreen, calcium flux antagonist format; format: cell-based; settings: at 10 μM
T1 sequence (Q13324 1-411): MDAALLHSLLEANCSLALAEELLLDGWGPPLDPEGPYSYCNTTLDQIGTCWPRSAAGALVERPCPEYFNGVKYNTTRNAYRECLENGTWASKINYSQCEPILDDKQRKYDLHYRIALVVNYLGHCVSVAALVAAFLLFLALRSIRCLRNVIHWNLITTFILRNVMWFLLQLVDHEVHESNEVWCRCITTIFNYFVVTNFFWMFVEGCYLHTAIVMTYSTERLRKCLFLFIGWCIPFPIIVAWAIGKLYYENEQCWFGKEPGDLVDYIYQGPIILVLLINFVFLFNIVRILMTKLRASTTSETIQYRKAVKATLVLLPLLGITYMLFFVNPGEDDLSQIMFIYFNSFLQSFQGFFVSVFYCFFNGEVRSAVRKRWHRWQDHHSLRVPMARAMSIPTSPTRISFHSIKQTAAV
Experimental: as §1
(§2) Using the EC80 values determined previously, stimulated all pre-incubated sample compound and reference antagonist (if applicable) wells with EC80 of reference agonist.
(§3) Read for 180 seconds using the FLIPR^TETRA (this addition added reference agonist to respective wells)—then fluorescence measurements were collected to calculate IC50-values.

[7] = target: T2, GIP receptor (Homo sapiens, UniProt P48546); test: as above; format: cell-based; settings: at 10 μM and 100 nM
T2 sequence (P48546 22-466): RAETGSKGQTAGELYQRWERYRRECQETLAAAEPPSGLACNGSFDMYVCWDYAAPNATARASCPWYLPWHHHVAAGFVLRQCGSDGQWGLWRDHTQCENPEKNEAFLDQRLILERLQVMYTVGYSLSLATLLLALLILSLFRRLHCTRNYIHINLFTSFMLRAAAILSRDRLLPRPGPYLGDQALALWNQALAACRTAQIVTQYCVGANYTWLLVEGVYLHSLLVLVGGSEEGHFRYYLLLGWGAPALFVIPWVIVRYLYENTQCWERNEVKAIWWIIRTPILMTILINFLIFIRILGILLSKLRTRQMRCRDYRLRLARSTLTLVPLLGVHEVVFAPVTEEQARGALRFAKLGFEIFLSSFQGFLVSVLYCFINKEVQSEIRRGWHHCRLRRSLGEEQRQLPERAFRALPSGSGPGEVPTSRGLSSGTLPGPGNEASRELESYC
Experimental: as §1, §2, §3

[8] = target: Secretin receptor (Homo sapiens, UniProt P47872); test: as above; format: cell-based; settings: at 10 μM
Experimental: as §1, §2, §3

[9] = tested on: high fat fed C57BL/6J mice; test: Body weight gain in high fat fed C57BL/6J mice, 10 days s.c. treatment; format: in vivo; settings: both doses 0.5 and 5 nmol/kg s.c. twice daily
Experimental: C57BL/6J mice were acclimatized in their new environment for 4 weeks with free access to a high fat diet and water. […] Throughout the study, body weights were recorded daily and used to administer the body weight-corrected doses of peptide (FIG. 6). Mice were sacrificed by cervical dislocation.

[10] = in vivo; settings: male, cynomolgus monkey
Experimental: Plasma samples were withdrawn at the following time points; predose, 5, 10, 30 min, 1, 2, 4, 8, 12, 24 and 36 h post i.v. dosing and predose, 10, 30 min, 1, 2, 4, 8, 12, 24, 36 and 48 h post s.c. dosing. The vehicle consisted of 25 mM phosphate buffered saline at pH 7.4 (25 mM sodium phosphate, 25 mM NaCl). Plasma samples were analyzed using protein precipitation followed by solid phase extraction and LC-MS/MS analysis. Pharmacokinetic parameters were calculated using non-compartmental analysis in WinNonLin version 4.1.

[11] = diet induced obese C57BL/6J mice

Secretin receptor, sequence (P47872 23-440, species assumed): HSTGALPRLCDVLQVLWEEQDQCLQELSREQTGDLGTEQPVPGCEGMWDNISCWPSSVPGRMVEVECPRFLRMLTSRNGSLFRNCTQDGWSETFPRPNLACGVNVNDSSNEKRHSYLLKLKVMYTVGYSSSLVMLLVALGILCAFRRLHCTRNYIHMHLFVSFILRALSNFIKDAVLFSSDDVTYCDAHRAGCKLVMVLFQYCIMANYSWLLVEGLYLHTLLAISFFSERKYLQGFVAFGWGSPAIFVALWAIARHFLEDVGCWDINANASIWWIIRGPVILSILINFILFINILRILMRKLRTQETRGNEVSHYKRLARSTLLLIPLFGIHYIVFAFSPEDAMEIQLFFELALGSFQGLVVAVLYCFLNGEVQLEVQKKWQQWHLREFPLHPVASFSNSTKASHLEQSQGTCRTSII
Glucagon receptor, sequence (P47871 26-477): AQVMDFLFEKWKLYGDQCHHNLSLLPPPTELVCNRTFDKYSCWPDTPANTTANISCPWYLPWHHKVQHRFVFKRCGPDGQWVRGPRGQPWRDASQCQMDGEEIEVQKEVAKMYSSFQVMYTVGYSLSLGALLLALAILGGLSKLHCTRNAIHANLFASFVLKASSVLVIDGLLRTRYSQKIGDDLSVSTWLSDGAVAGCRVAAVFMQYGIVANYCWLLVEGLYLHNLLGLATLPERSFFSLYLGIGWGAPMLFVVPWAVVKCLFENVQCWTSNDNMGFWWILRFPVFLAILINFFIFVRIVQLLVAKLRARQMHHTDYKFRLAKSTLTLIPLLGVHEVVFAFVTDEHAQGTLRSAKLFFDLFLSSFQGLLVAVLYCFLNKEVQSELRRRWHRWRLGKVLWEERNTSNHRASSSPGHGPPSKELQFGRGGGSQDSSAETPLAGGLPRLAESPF
GLP-1 receptor, sequence (P43220 24-463): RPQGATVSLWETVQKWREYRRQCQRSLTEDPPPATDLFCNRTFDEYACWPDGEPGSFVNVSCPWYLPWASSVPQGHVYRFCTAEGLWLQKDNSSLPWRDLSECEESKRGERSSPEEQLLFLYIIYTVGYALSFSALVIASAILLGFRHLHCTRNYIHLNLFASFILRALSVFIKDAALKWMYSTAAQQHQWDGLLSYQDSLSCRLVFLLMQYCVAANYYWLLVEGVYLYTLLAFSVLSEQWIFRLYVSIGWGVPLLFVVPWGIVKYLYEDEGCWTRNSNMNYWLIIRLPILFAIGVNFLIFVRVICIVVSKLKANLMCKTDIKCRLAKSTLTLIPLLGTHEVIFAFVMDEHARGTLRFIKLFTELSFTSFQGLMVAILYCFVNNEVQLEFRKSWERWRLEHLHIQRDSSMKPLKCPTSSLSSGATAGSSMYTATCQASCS

SMILES	effect on body weight gain ([1]; db/db mice, 5 nmol/kg s.c. twice daily, p<0.0001)	effect on increase in HbA1c over time ([1]; db/db mice, 1, 2.5 and 5 nmol/kg s.c. twice daily)	decrease of body weight ([2]; diet induced obese C57BL/6J mice (30 weeks high fat diet), p<0.05)	body weight level reached compared with non-treated controls on regular chow diet [2, 11]	effect on fasting blood glucose [2, 11]	effect on glucose tolerance (decrease in AUC during OGTT) ([2]; diet induced obese C57BL/6J mice, 6 hour fast)	effect on HDL ([3]; P<0.001)	effect on LDL ([3]; P<0.001)	effect on total cholesterol ([3]; P<0.001)	effect on triglycerides ([3]; P<0.05)	effect on ratio HDULDL ([3]; p<0.001)	agonist activity, GLP-1 receptor [4]	agonist activity, Glucagon receptor [5]	antagonist activity, CRF2 receptor [6]	antagonist activity, GIP receptor [7]	antagonist activity, Secretin receptor [8]	effect on body weight gain [9]	bioavailability [10]	Tmax ([10]; sc, 20 nmol/kg)
CCCCCCCCCCCCCCCC(=O)N[C@@H](CCC(=O)NCCCC[C@H](NC(=O)[C@H](CCC(=O)O)NC(=O)[C@H](CC(=O)O)NC(=O)[C@H](CC(C)C)NC(=O)[C@H](Cc1ccc(O)cc1)NC(=O)[C@H](CCCCN)NC(=O)[C@H](CO)NC(=O)[C@H](Cc1ccc(O)cc1)NC(=O)[C@H](CC(=O)O)NC(=O)[C@H](CO)NC(=O)[C@@H](NC(=O)[C@H](Cc1ccccc1)NC(=O)[C@@H](NC(=O)CNC(=O)[C@H](CCC(N)=O)NC(=O)[C@H](CO)NC(=O)[C@@H](N)Cc1c[nH]cn1)[C@@H](C)O)[C@@H](C)O)C(=O)N[C@@H](CCCNC(=N)N)C(=O)N[C@@H](C)C(=O)N[C@@H](CCCCN)C(=O)N[C@@H](CC(=O)O)C(=O)N[C@@H](Cc1ccccc1)C(=O)N[C@H](C(=O)N[C@@H](CCC(=O)O)C(=O)N[C@@H](Cc1c[nH]c2ccccc12)C(=O)N[C@@H](CC(C)C)C(=O)N[C@@H](CC(C)C)C(=O)N[C@@H](CO)C(=O)N[C@@H](C)C(N)=O)[C@@H](C)CC)C(=O)O [Compound 6]	significantly decreased body weight gain compared to vehicle	did not at any time-point reduce the increase in HbA1c	38.7%	stabilized to the same body weight as obtained by non-treated control animals on a regular chow diet	significantly decreased fasting blood glucose	no significant effect on glucose tolerance	significantly decreased	significantly decreased	significantly decreased	significantly decreased	increased significantly	exhibited agonist activities	exhibited agonist activities	exhibited antagonist activity	exhibited antagonist activity	exhibited antagonist activity	significantly decreased body weight gain	43%	4 to 8 h
CCCCCCCCCCCCCCCC(=O)N[C@@H](CCC(=O)NCCCC[C@H](NC(=O)[C@H](CCC(=O)O)NC(=O)[C@H](CC(=O)O)NC(=O)[C@H](CC(C)C)NC(=O)[C@H](Cc1ccc(O)cc1)NC(=O)[C@H](CCCCN)NC(=O)[C@H](CO)NC(=O)[C@H](Cc1ccc(O)cc1)NC(=O)[C@H](CC(=O)O)NC(=O)[C@H](CO)NC(=O)[C@@H](NC(=O)[C@H](Cc1ccccc1)NC(=O)[C@@H](NC(=O)CNC(=O)[C@H](CCC(N)=O)NC(=O)C(C)(C)NC(=O)[C@@H](N)Cc1c[nH]cn1)[C@@H](C)O)[C@@H](C)O)C(=O)N[C@@H](CCCNC(=N)N)C(=O)N[C@@H](C)C(=O)N[C@@H](CCCCN)C(=O)N[C@@H](CC(=O)O)C(=O)N[C@@H](Cc1ccccc1)C(=O)N[C@H](C(=O)N[C@@H](CCC(=O)O)C(=O)N[C@@H](Cc1c[nH]c2ccccc12)C(=O)N[C@@H](CC(C)C)C(=O)N[C@@H](CC(C)C)C(=O)N[C@@H](CO)C(=O)N[C@@H](C)C(N)=O)[C@@H](C)CC)C(=O)O [Compound 7] (HELM PEPTIDE1{H.[Aib].Q.G.T.F.T.S.D.Y.S.K.Y.L.D.E.K.R.A.K.D.F.I.E.W.L.L.S.A.[am]}|PEPTIDE2{[CCCCCCCCCCCCCCCC(=O)[*:2]].[gGlu]}$PEPTIDE1,PEPTIDE2,17:R3-2:R2$$$V2.0)																	significantly decreased body weight gain		

— US9403894B2, “Glucagon analogues” (Zealand Pharma A/S, priority 2010, dated 2016)
